Source: patent US8637508B2, “Heterocyclic derivatives and their use in the treatment of neurological disorders” (Novartis AG, priority 2011, dated 2014)
Counter-ions that a name gives are not always drawn. Like-named read-outs stand apart in the source and are kept apart here.

Columns and labels:
[1] = molecular target: human BACE-1 (Homo sapiens (Human), UniProt P56817); assay: Test 1: Inhibition of human BACE-1
[2] = molecular target: human BACE-2 (Homo sapiens (Human), UniProt Q9Y5Z0); assay: Test 2: Inhibition of human BACE-2; assay type: biochemical
Chain of human BACE-2 (Q9Y5Z0 63-473): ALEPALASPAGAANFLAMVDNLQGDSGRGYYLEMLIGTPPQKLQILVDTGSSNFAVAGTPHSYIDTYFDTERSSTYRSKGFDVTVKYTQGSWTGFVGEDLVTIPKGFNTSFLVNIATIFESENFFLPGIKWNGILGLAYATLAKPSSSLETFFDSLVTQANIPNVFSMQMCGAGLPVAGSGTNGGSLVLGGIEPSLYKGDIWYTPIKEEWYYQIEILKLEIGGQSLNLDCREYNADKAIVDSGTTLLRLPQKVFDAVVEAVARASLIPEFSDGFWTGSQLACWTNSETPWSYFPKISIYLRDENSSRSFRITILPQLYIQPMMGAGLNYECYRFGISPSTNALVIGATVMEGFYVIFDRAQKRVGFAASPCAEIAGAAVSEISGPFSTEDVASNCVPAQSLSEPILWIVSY
From the text: Test 2: Inhibition of Human BACE-2

[3] = read-out: BACE-1 IC50, mean IC50, recombinant BACE-1, acetate buffer pH 4.5, fluorescence-quenched peptide substrate
[4] = mean IC50, recombinant BACE-2, acetate buffer pH 4.5, fluorescence-quenched peptide substrate, read-out: BACE-2 IC50

Chain of human BACE-1 (P56817 46-457): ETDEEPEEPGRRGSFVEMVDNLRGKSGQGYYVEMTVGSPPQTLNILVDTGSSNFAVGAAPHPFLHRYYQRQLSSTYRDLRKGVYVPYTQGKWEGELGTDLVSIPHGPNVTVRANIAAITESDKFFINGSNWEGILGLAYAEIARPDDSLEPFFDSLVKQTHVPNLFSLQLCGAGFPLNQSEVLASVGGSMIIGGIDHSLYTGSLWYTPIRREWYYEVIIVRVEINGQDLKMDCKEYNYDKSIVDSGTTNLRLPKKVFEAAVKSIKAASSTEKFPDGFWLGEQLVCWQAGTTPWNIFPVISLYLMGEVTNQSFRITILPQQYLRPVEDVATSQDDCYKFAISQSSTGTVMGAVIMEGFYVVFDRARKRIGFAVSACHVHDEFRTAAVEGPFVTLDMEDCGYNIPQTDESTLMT

SMILES | IC50 [1, 3] [nM] | IC50 [2, 4] [nM] | IC50 [1] [nM] | IC50 [2] [nM]
CC1(c2cccc(NC(=O)c3ccc(Br)cn3)n2)COCC(N)=N1 (racemic) [Example 2, 5-Bromo-pyridine-2-carboxylic acid [6-(5-amino-3-methyl-3,6-dihydro-2H-[1,4]-oxazin-3-yl)-pyridin-2-yl]-amide] | 790 | 360 |  | 
[2H]c1nc(C(=O)Nc2cccc(C3(CF)COCC(N)=N3)n2)c(C([2H])([2H])[2H])c([2H])c1Cl (centres unmarked) [Example 6, 5-{6-[(4,6-Dideutero-5-chloro-3-trideuteromethyl-pyridine-2-carbonyl)-amino]-pyridin-2-yl}-5-fluoromethyl-5,6-dihydro-2H-[1,4]oxazin-3-yl-ammonium trifluoro acetate] |  |  | 550 | 240
NC(=S)c1ccc(C(=O)Nc2cccc(C3(CF)COCC(N)=N3)n2)nc1 (centres unmarked) [Example 7, 5-{6-[(5-Thiocarbamoyl-pyridine-2-carbonyl)-amino]-pyridin-2-yl}-5-fluoromethyl-5,6-dihydro-2H-[1,4]oxazin-3-yl-ammonium trifluoro-acetate] | 2100 | 8700 |  | 
C[C@]1(c2cccc(NC(=O)c3ccc(C#N)cn3)n2)CO[C@@](C)(C(F)(F)F)C(N)=N1 [Example 9, 5-Cyano-pyridine-2-carboxylic acid [6-((3S,6R)-5-amino-3,6-dimethyl-6-trifluoromethyl-3,6-dihydro-2H-[1,4]oxazin-3-yl)-pyridin-2-yl]-amide hydrochloride] | 6200 |  |  | 
[2H]c1nc(C(=O)Nc2cc(C3(CF)COCC(N)=N3)ccn2)c(C([2H])([2H])[2H])c([2H])c1Cl (centres unmarked) [Example 13, 5-{2-[(5-Chloro-4,6-dideutero-3-trideuteromethyl-pyridine-2-carbonyl)-amino]-pyridin-4-yl}-5-fluoromethyl-5,6-dihydro-2H-[1,4]oxazin-3-yl-ammonium acetate] |  |  |  | 1500
NC1=NC(CF)(c2ccnc(NC(=O)c3ccc(Cl)cn3)c2)COC1 (centres unmarked) [Example 14, 5-{2-[(5-Chloro-pyridine-2-carbonyl)-amino]-pyridin-4-yl}-5-fluoromethyl-5,6-dihydro-2H-[1,4]oxazin-3-yl-ammonium trifluoro-acetate] | 8100 | 4800 |  | 
Cc1cc(C(N)=S)cnc1C(=O)Nc1cc(C2(CF)COCC(N)=N2)ccn1 (centres unmarked) [Example 15, 5-Fluoromethyl-5-{2-[(3-methyl-5-thiocarbamoyl-pyridine-2-carbonyl)-amino]-pyridin-4-yl}-5,6-dihydro-2H-[1,4]oxazin-3-yl-ammonium trifluoro-acetate] |  |  | > 10000 | > 10000
NC1=NC(CF)(c2cc(NC(=O)c3ccc(Br)cn3)cnc2Cl)COC1 (centres unmarked) [Example 18, 5-Bromo-pyridine-2-carboxylic acid [5-(5-amino-3-fluoromethyl-3,6-dihydro-2H-[1,4]oxazin-3-yl)-6-chloro-pyridin-3-yl]-amide hydrochloride] | 140 | 130 |  | 
C[C@@]1(c2cccc(NC(=O)c3ncc(C#N)cc3Cl)n2)CO[C@@](C)(C(F)(F)F)C(N)=N1 [Example 20, 3-Chloro-5-cyano-pyridine-2-carboxylic acid [6-((3R,6R)-5-amino-3,6-dimethyl-6-trifluoromethyl-3,6-dihydro-2H-[1,4]oxazin-3-yl)-pyridin-2-yl]-amide] | 10 | 41 |  | 
[2H]c1nc(C(=O)Nc2cccc([C@]3(C)CO[C@@](C)(C(F)(F)F)C(N)=N3)n2)c(C([2H])([2H])[2H])c([2H])c1Cl [Example 21, 5-Chloro-4,6-dideuterio-3-trideuteriomethyl-pyridine-2-carboxylic acid [6-((3R,6R)-5-amino-3,6-dimethyl-6-trifluoromethyl-3,6-dihydro-2H-[1,4]oxazin-3-yl)-pyridin-2-yl]-amide] |  |  | 31 | 8
C[C@@]1(c2cccc(NC(=O)c3ncc(OCC(F)(F)F)nc3N)n2)CO[C@@](C)(C(F)(F)F)C(N)=N1 [Example 23, 3-Amino-5-(2,2,2-trifluoro-ethoxy)-pyrazine-2-carboxylic acid [6-((3R,6R)-5-amino-3,6-dimethyl-6-trifluoromethyl-3,6-dihydro-2H-[1,4]oxazin-3-yl)-pyridin-2-yl]-amide] | 1200 | > 10000 |  | 

More lines, main results first:

IC50 [1, 3] [nM] | IC50 [2, 4] [nM] | SMILES | IC50 [1] [nM] | IC50 [2] [nM]
390 | 260 | C[C@@]1(c2cccc(NC(=O)c3ccc(Br)cn3)n2)COCC(N)=N1 [Example 1, 5-Bromo-pyridine-2-carboxylic acid [6-((R)-5-amino-3-methyl-3,6-dihydro-2H-[1,4]-oxazin-3-yl)-pyridin-2-yl]-amide] |  | 
5 | 20 | Cc1cc(C#N)cnc1C(=O)Nc1cccc([C@]2(C)CO[C@@](C)(C(F)(F)F)C(N)=N2)n1 [Example 8, 5-Cyano-3-methyl-pyridine-2-carboxylic acid [6-((3R,6R)-5-amino-3,6-dimethyl-6-trifluoro-methyl-3,6-dihydro-2H-[1,4]oxazin-3-yl)-pyridin-2-yl]-amide] |  | 
39 |  | C[C@@]1(c2cccc(NC(=O)c3ccc(C#N)cn3)n2)CO[C@@](C)(C(F)(F)F)C(N)=N1 [Example 10, 5-Cyano-pyridine-2-carboxylic acid [6-((3R,6R)-5-amino-3,6-dimethyl-6-trifluoromethyl-3,6-dihydro-2H-[1,4]oxazin-3-yl)-pyridin-2-yl]-amide] |  | 
43 | 82 | C[C@@]1(c2cccc(NC(=O)c3ncc(C#N)cc3N)n2)CO[C@@](C)(C(F)(F)F)C(N)=N1 [Example 19, 3-Amino-5-cyano-pyridine-2-carboxylic acid [6-((3R,6R)-5-amino-3,6-dimethyl-6-trifluoromethyl-3,6-dihydro-2H-[1,4]oxazin-3-yl)-pyridin-2-yl]-amide] |  | 
13 | 5 | C[C@@]1(c2cccc(NC(=O)c3ncc(Br)cc3Cl)n2)CO[C@@](C)(C(F)(F)F)C(N)=N1 [Example 22, 5-Bromo-3-chloro-pyridine-2-carboxylic acid [6-((3R,6R)-5-amino-3,6-dimethyl-6-trifluoromethyl-3,6-dihydro-2H-[1,4]oxazin-3-yl)-pyridin-2-yl]-amide] |  | 
93 | 15 | COc1cnc(C(=O)Nc2ccc(F)c([C@]3(C)CO[C@@](C)(C(F)(F)F)C(N)=N3)n2)c(C)c1 [Example 25, 5-Methoxy-3-methyl-pyridine-2-carboxylic acid [6-((3R,6R)-5-amino-3,6-dimethyl-6-trifluoromethyl-3,6-dihydro-2H-[1,4]oxazin-3-yl)-5-fluoro-pyridin-2-yl]amide] |  | 
26 | 24 | Cc1cc(OC(F)F)cnc1C(=O)Nc1ccc(F)c([C@]2(C)CO[C@@](C)(C(F)(F)F)C(N)=N2)n1 [Example 29, 5-Difluoromethoxy-3-methyl-pyridine-2-carboxylic acid [6-((3R,6R)-5-amino-3,6-dimethyl-6-trifluoromethyl-3,6-dihydro-2H-[1,4]oxazin-3-yl)-5-fluoro-pyridin-2-yl]amide] |  | 
45 | 7 | Cc1cc(OCF)cnc1C(=O)Nc1ccc(F)c([C@]2(C)CO[C@@](C)(C(F)(F)F)C(N)=N2)n1 [Example 32, 5-Fluoromethoxy-3-methyl-pyridine-2-carboxylic acid [6-((3R,6R)-5-amino-3,6-dimethyl-6-trifluoromethyl-3,6-dihydro-2H-[1,4]oxazin-3-yl)-5-fluoro-pyridin-2-yl]amide] |  | 
